{"source": "patent US12702650B2", "about": "“Methods and compositions for treating smith-magenis syndrome” (The Regents of the University of California, priority 2019, dated 2026)", "key": {"Lgl1^+/− mice [1]": {"system": "Lgl1^+/− mice", "assay": "three-chamber social interaction test after NMDAR blocker injection", "format": "in vivo, mouse", "protocol": "Pharmacological blockers of NMDARs were used, and animals tested in the three-chamber social interaction test.\nSocial interaction test—The social interaction test was performed as previously described (Yang et al., 2011). The sociability apparatus (Stoetling) has three 20 cm×40 cm chambers and two target enclosures 7 cm in diameter and 15 cm tall. During testing, the apparatus was surrounded by opaque panels to prevent mice from seeing out of the apparatus.\nAnimals were placed in the center chamber of the 3-chambered sociability apparatus with the doors between chambers closed for 10 minutes to habituate to the testing conditions. The doors were removed, and mice were allowed to explore the full field for 10 minutes. Non-littermate strain- and age-matched target mice from a separate cage were introduced during the social interaction phase of the test. For the social novelty phase, target mice from the social interaction phase were kept in the same location and a novel target mouse was introduced to the opposite chamber. For scoring of interaction time, ROIs containing the target mouse and novel object were selected in MATLAB. ROIs were selected by experimenters blinded to the animal genotypes or virus treatment.\nScoring for distance travelled and thigmotaxis during the open field test, as well as time spent interacting with objects in the Novel Object Recognition test and time spent interacting with target mice and objects in the Social Interaction test was performed using Autotyping 15.04 in MATLAB 2014b (Patel et al., 2014)(MathWorks)."}, "Lgl1^+/− mice [2]": {"system": "Lgl1^+/− mice", "assay": "nestlet shredding (stereotyped repetitive behavior)", "format": "in vivo, mouse", "conditions": "Lgl1^+/+ and Lgl1^+/− mice; ketamine injection vs saline", "protocol": "Nestlet shredding—Mice were removed from their home cage and placed individually into a clean novel cage containing a weighed piece of cotton nesting material of approximately 2.8 g. Mice were left in the cage for 60 minutes. At the end of the testing period, mice were returned to their home cage. Shredded material was separated from the undisturbed portion, which was weighed (Li et al., 2006)."}}}
{"smiles": "C[C@]12N[C@H](Cc3ccccc31)c1ccccc12", "note": "[MK-801, dizocilpine]", "values": [{"measurement": "preference for social interaction (social interaction phase)", "setting": "Lgl1^+/− mice [1]; intraperitoneal injection of 0.3 mg/kg MK-801", "value": "strongly preferred social interaction"}]}
{"smiles": "CNC1(c2ccccc2Cl)CCCCC1=O", "note": "(stereo not shown) [ketamine]", "values": [{"measurement": "nestlet-shredding activity", "setting": "Lgl1^+/− mice [2]", "value": "did not change"}, {"measurement": "preference for social interaction (social interaction phase)", "setting": "Lgl1^+/− mice [1]; intraperitoneal injection of 30 mg/kg ketamine, compared with control animals", "value": "clear preference for social interaction"}]}
{"smiles": "CC12CC3CC(C)(C1)CC(N)(C3)C2", "note": "[memantine]", "values": [{"measurement": "preference for social interaction (social interaction phase)", "setting": "Lgl1^+/− mice [1]; intraperitoneal injection of 20 mg/kg memantine", "value": "strongly preferred social interaction"}]}
